In PMC9145865, “Effects of Rare Phytocannabinoids on the Endocannabinoid System of Human Keratinocytes” (International Journal of Molecular Sciences, 2022):
Like-named read-outs stand apart in the source and are kept apart here.

What was measured:
[1] = system: HaCaT cells; assay: Apoptosis, DNA fragmentation ELISA; type: cell-based, human; settings: 24 h
Description: The HaCaT cells were seeded into 96-well plates at a density of 1 × 10^4 per well, incubated overnight and then treated with the selected pCBs at different concentrations (0.5 μM, 1.0 μM, 2.5 μM, 5.0 μM, 10 μM and 25 μM) for 24 h. After treatment, apoptotic cell death was quantified for specific compounds using ELISA assays, which were based on the evaluation of DNA fragmentation through an immunoassay for histone-associated DNA fragments in the cell cytoplasm. The specific determination of mono- and oligonucleosomes in the cytoplasmic fraction of cell lysates was performed by measuring the absorbance values at 405 nm, as reported in [60].

[2] = system: CB2; settings: cited from earlier work
[3] = system: FAAH; assay: FAAH activity assay in membranes of treated cells; type: cell-based, human; settings: HaCaT cells, half-IC50 amount, 24 h, vs. control
Description: FAAH Assay: The HaCaT cells were seeded into 6-well plates at a density of 4 × 10^4 per well, incubated overnight and then treated with the selected pCBs (6.0 µM of CBG, 4.0 µM of CBC, 9.0 µM of THCV and 13.0 µM of CBGA) for 24 h. The cell pellets were collected and FAAH activity was determined using membranes that were isolated from these cells. Briefly, the membranes were incubated at pH 7.4 with 10 μM of [^3H]AEA and 50 mM of Tris–HCl, 0.05% BSA at 37 °C in water bath for 30 min. The reaction was blocked with 1 mL of chloroform–methanol (1:1 v/v) and centrifuged at 3000 rpm for 10 min at 4 °C. The aqueous (top) layer was collected and transferred into scintillation vials. The amount of [^3H]ethanolamine that was released was expressed as pmol per min per mg of protein, as reported in [67].

[4] = system: PPARα; assay: Western blot protein expression of PPARα; type: cell-based, human; settings: HaCaT cells, half-IC50 dose, 24 h, vs. control
Description: The HaCaT cells were seeded into 6-well plates at a density of 4 × 10^4 per well, incubated overnight and then treated with the selected pCBs (6.0 µM of CBG, 4.0 µM of CBC, 9.0 µM of THCV and 13.0 µM of CBGA) for 24 h. The cell pellets were collected and then lysed in an ice-cold lysis buffer (10 mM of EDTA, 50 mM of pH 7.4 Tris–HCl, 150 mM of sodium chloride, 1% Triton-X-100, 2 mM of phenylmethylsulfonyl fluoride, 2 mM of sodium orthovanadate, […] of leupeptin and […] of aprotinin). The amount of protein was determined using the Bio-Rad Protein assay (Bio-Rad Laboratories, Hemel Hempstead, UK). An equal amount of protein (60 µg) was loaded onto 10% sodium dodecyl sulfate–polyacrylamide gels and blotted onto polyvinylidene fluoride sheets (Amersham Biosciences, Piscataway, NJ, USA). The membranes were blocked with dried 5% non-fat milk for 1 h and then incubated with suitable primary antibodies. Detection was performed using Azure Biosystems c400 (Dublin, CA, USA). The membranes were stripped using the Restore Western Blot Stripping Buffer from Thermo Fisher Scientific (Waltham, MA, USA) for 30 min under agitation at room temperature, according to the manufacturer’s instructions. The primary antibodies (Table 6) that were used were obtained from the following sources: […]

[5] = system: MAGL; assay: MAGL activity assay in membranes of treated cells; type: cell-based, human; settings: HaCaT cells, half-IC50 amount, 24 h, vs. control
Description: MAGL Assay: The HaCaT cells were seeded into 6-well plates at a density of 4 × 10^4 per well, incubated overnight and then treated with the selected pCBs (6.0 µM of CBG, 4.0 µM of CBC, 9.0 µM of THCV and 13.0 µM of CBGA) for 24 h. The cell pellets were collected and MAGL activity was determined using membranes that were isolated from these cells using the synthetic substrate arachidonoyl-1-thio-glycerol (200 μM) in 10 mM of Tris and 1 mM of EDTA pH 7.2 at 4 °C for 15 min [68]. The MAGL inhibitor JZL184 (4 μM), which was purchased from Sigma-Aldrich (St. Louis, MO, USA), was used to fully erase the enzyme activity as a control.

[6] = system: DAGLα/β; assay: DAGL α/β activity assay in membranes of treated cells; type: cell-based, human; settings: HaCaT cells, half-IC50 amount, 24 h, vs. control
Description: DAGL α/β Assay: The HaCaT cells were seeded into 6-well plates at a density of 4 × 10^4 per well, incubated overnight and then treated with the selected pCBs (6.0 µM of CBG, 4.0 µM of CBC, 9.0 µM of THCV and 13.0 µM of CBGA) for 24 h. The cell pellets were collected and DAGL α/β activity was determined using membranes that were isolated from these cells using the synthetic substrate p-nitrophenyl butyrate (pNPB) (8 mM) in 50 mM of HEPES pH 7.3 at room temperature for 20 min [68]. The DAGLα/β inhibitor KT172 (1 μM), which was purchased from Sigma-Aldrich (St. Louis, MO, USA), was used to fully erase the enzyme activity as a control.

Row | SMILES | DNA fragmentation (hallmark of apoptosis) ([1]; 25 µM) | activity at CB2 ([2]; ref [52]) | activity of FAAH [3] | PPARα protein expression (in words) [4] | Protein Expression PPARα [4] | activity of MAGL [5] | DNA fragmentation (hallmark of apoptosis) ([1]; all doses (0.5-25 µM)) | activity at CB2 ([2]; in vivo and in vitro, ref [53]) | DAGLα/β activity [6] | activity at CB2 ([2]; ref [28],[50],[51]) | DNA fragmentation (hallmark of apoptosis) ([1]; 10 µM)
1 | CCCCCc1cc(O)c(C/C=C(\C)CCC=C(C)C)c(O)c1C(=O)O [CBGA, cannabigerolic acid] | significant increase | partial agonists | significantly increased | significantly reduced | ↓++++ | significantly increased |  |  |  |  | 
2 | CCCc1cc(O)c2c(c1)OC(C)(C)[C@@H]1CCC(C)=C[C@@H]21 [THCV, Δ^9-tetrahydrocannabivarin] |  |  | significantly increased | significantly reduced | ↓++ | significantly increased | ineffective | partial CB2 agonist | increased DAGLα/β activity remarkably |  | 
3 | CCCCCc1cc(O)c2c(c1)OC(C)(CCC=C(C)C)C=C2 (stereo not shown) [CBC, cannabichromene] |  |  | significantly increased | significantly reduced | ↓++ | significantly increased |  |  | increased DAGLα/β activity remarkably | CB2 agonist | 
4 | CCCCCc1cc(O)c(C/C=C(\C)CCC=C(C)C)c(O)c1 [CBG, cannabigerol] | significant increase | partial agonists | significantly increased |  |  | significantly increased |  |  | increased DAGLα/β activity remarkably |  | induced the same effect
